Read-outs that look alike come from different tables or passages of the source.
Columns and labels:
[1] = system: Gram-negative bacteria (Enterobacterales, Pseudomonas, Acinetobacter); details: for RM I (strains intermediate by reference method) / RM R (strains resistant by reference method) / RM S (strains susceptible by reference method): total of 3 sites, blood cultures; for CLSI RM I: number of strains I; for CLSI RM R / EUCAST RM R: number of strains resistant; for CLSI RM S / EUCAST RM S: number of strains susceptible
Protocol: (§1) For Colistin (on gram-negative bacteria) and vancomycin (in the case of Staphylococcus), the method used to determine the antimicrobial susceptibility was broth microdilution [5]. […] Standard methodologies were performed from the same inoculum used to spike the blood cultures. Quality control of the reference methods was also performed according to the recommendations of EUCAST and CLSI.
(§2) All the strains were classified as S, I or R according the reference methods. MIC was determined for vancomycin and colistin. The presence of ESBL on Enterobacterales group I, together with the screening for ESBL on Enterobacterales group II, and the screening for AmpC and presence of carbapenemases according EUCAST protocol for detection of mechanisms of resistance were also performed.
(§3) Positive blood cultures were spiked in blood agar and colonies identified and submitted to antimicrobial susceptibility assay according reference disk diffusion method and/or to MIC values determined by microdilution. The results were analysed using the most recent EUCAST breakpoint tables and the M100 (29th ed.) breakpoint tables from CLSI.

[2] = system: Gram-positive bacteria (Staphylococcus spp, Enterococcus spp); test: Reference method (RM): disk diffusion and/or broth microdilution, S/I/R classification, Gram-positive strains; assay type: cell-based; details: for CLSI RM R / EUCAST RM R: number of strains resistant; for CLSI RM S / EUCAST RM S: number of strains susceptible; for EUCAST RM I: number of strains I;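 for all read-outs here: susceptibility categories assigned with the latest EUCAST breakpoint tables or CLSI M100 29th edition breakpoints, with quality control of the reference methods following EUCAST and CLSI guidance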
Protocol: as §1, §2, §3

[3] = CLSI, FASTinov, Porto, spiked on blood cultures
[4] = CLSI, Hospital Ramon et Cajal, Madrid, patients' blood cultures
[5] = CLSI, Hospital S. João, Porto, patients' blood cultures
[6] = EUCAST, FASTinov, Porto, spiked on blood cultures
[7] = EUCAST, Hospital Ramon et Cajal, Madrid, patients' blood cultures
[8] = EUCAST, Hospital S. João, Porto, patients' blood cultures
[9] = CLSI, FASTinov, Porto, spiked blood cultures
[10] = CLSI, total of 3 sites, blood cultures
[11] = EUCAST, FASTinov, Porto, spiked blood cultures
[12] = EUCAST, total of 3 sites, blood cultures
[13] = CLSI, Hospital Ramon et Cajal, Madrid, patients blood cultures
[14] = EUCAST, Hospital Ramon et Cajal, Madrid, patients blood cultures

Row | Molecule | RM R (strains resistant by reference method) ([1]; CLSI) | RM S (strains susceptible by reference method) ([1]; CLSI) | RM R (strains resistant by reference method) ([1]; EUCAST) | RM S (strains susceptible by reference method) ([1]; EUCAST) | CLSI RM R [1, 3] | CLSI RM R [1, 4] | EUCAST RM R [1, 6] | CLSI RM S [1, 3] | CLSI RM S [1, 4] | CLSI RM S [1, 5] | EUCAST RM S [1, 6] | EUCAST RM S [1, 7] | EUCAST RM S [1, 8] | RM R (strains resistant by reference method) [2, 9] | RM S (strains susceptible by reference method) [2, 9] | RM R (strains resistant by reference method) [2, 10] | RM S (strains susceptible by reference method) [2, 10] | RM R (strains resistant by reference method) [2, 11] | RM S (strains susceptible by reference method) [2, 11] | RM R (strains resistant by reference method) [2, 12] | also measured
1 | Amoxacillin-clavulanic acid | 107 | 110 | 125 | 106 | 56 | 19 | 62 | 20 | 46 | 44 | 19 | 44 | 43 |  |  |  |  |  |  |  | RM I (strains intermediate by reference method) ([1]; CLSI): 14; CLSI RM I [1, 3]: 5; CLSI RM I [1, 4]: 9; CLSI RM R [1, 5]: 32; EUCAST RM R [1, 7]: 30; EUCAST RM R [1, 8]: 33
2 | Cc1onc(-c2ccccc2)c1C(=O)N[C@@H]1C(=O)N2[C@@H]1SC(C)(C)[C@@H]2C(=O)O [Oxacillin] |  |  |  |  |  |  |  |  |  |  |  |  |  | 19 | 4 | 74 | 14 | 19 | 4 | 74 | RM S (strains susceptible by reference method) [2, 12]: 14; CLSI RM R [2, 13]: 19; CLSI RM R [2, 5]: 36; EUCAST RM R [2, 14]: 19; EUCAST RM R [2, 8]: 36; CLSI RM S [2, 13]: 5; CLSI RM S [2, 5]: 5; EUCAST RM S [2, 14]: 5; EUCAST RM S [2, 8]: 5
3 | Gentamicin [Gentamicin high level] |  |  |  |  |  |  |  |  |  |  |  |  |  | 12 | 35 | 15 | 51 | 12 | 35 | 15 | RM S (strains susceptible by reference method) [2, 12]: 51; CLSI RM R [2, 13]: 2; CLSI RM R [2, 5]: 1; EUCAST RM R [2, 14]: 2; EUCAST RM R [2, 8]: 1; CLSI RM S [2, 13]: 10; CLSI RM S [2, 5]: 6; EUCAST RM S [2, 14]: 10; EUCAST RM S [2, 8]: 6
4 | NCC[C@H](O)C(=O)N[C@@H]1C[C@H](N)[C@@H](O[C@H]2O[C@H](CN)[C@@H](O)[C@H](O)[C@H]2O)[C@H](O)[C@H]1O[C@H]1O[C@H](CO)[C@@H](O)[C@H](N)[C@H]1O [Amikacin] | 27 | 316 | 30 | 313 | 25 | 1 | 27 | 158 | 77 | 81 | 156 | 77 | 80 |  |  |  |  |  |  |  | CLSI RM R [1, 5]: 1; EUCAST RM R [1, 7]: 1; EUCAST RM R [1, 8]: 2
5 | CO/N=C(\C(=O)N[C@@H]1C(=O)N2C(C(=O)O)=C(COC(C)=O)CS[C@H]12)c1csc(N)n1 [Cefotaxime] | 75 | 156 | 75 | 156 | 54 | 13 | 54 | 27 | 61 | 68 | 27 | 61 | 68 |  |  |  |  |  |  |  | CLSI RM R [1, 5]: 8; EUCAST RM R [1, 7]: 13; EUCAST RM R [1, 8]: 8
6 | CC(=O)NC[C@H]1CN(c2ccc(N3CCOCC3)c(F)c2)C(=O)O1 [Linezolid] |  |  |  |  |  |  |  |  |  |  |  |  |  | 3 | 128 | 5 | 298 | 3 | 128 | 5 | RM S (strains susceptible by reference method) [2, 12]: 298; CLSI RM R [2, 5]: 2; EUCAST RM R [2, 8]: 2; CLSI RM S [2, 13]: 68; CLSI RM S [2, 5]: 102; EUCAST RM S [2, 14]: 68; EUCAST RM S [2, 8]: 102
7 | C[C@@H](O)[C@H]1C(=O)N2C(C(=O)O)=C(SCCN=CN)C[C@H]12 [Imipenem] |  |  |  |  |  |  |  |  |  |  |  |  |  |  |  |  |  | 26 |  |  | RM I (strains intermediate by reference method) [2, 11]: 39; EUCAST RM I [2, 14]: 12; EUCAST RM R [2, 14]: 1
8 | CO[C@@]1(NC(=O)Cc2cccs2)C(=O)N2C(C(=O)O)=C(COC(N)=O)CS[C@@H]21 [Cefoxitin] |  |  |  |  |  |  |  |  |  |  |  |  |  | 17 | 26 | 52 | 48 | 17 | 26 | 52 | RM S (strains susceptible by reference method) [2, 12]: 48; CLSI RM R [2, 13]: 9; CLSI RM R [2, 5]: 26; EUCAST RM R [2, 14]: 9; EUCAST RM R [2, 8]: 26; CLSI RM S [2, 13]: 13; CLSI RM S [2, 5]: 9; EUCAST RM S [2, 14]: 13; EUCAST RM S [2, 8]: 9
9 | CC1(C)S[C@@H]2[C@H](NC(=O)[C@H](N)c3ccccc3)C(=O)N2[C@H]1C(=O)O [Ampicillin] | 164 | 66 | 165 | 66 | 67 | 53 | 67 | 14 | 20 | 32 | 14 | 20 | 32 | 23 | 42 | 38 | 61 | 23 | 42 | 38 | RM I (strains intermediate by reference method) [2, 12]: 2; RM S (strains susceptible by reference method) [2, 12]: 59; EUCAST RM I [2, 14]: 2; CLSI RM R [2, 13]: 10; CLSI RM R [2, 5]: 5; EUCAST RM R [2, 14]: 10; EUCAST RM R [2, 8]: 5; CLSI RM S [2, 13]: 12; CLSI RM S [2, 5]: 7; EUCAST RM S [2, 14]: 10; EUCAST RM S [2, 8]: 7; RM I (strains intermediate by reference method) ([1]; CLSI): 1; CLSI RM I [1, 4]: 1; CLSI RM R [1, 5]: 44; EUCAST RM R [1, 7]: 54; EUCAST RM R [1, 8]: 44
10 | Ceftazidime-avibactam | 8 | 307 | 8 | 307 | 8 | 1 | 8 | 145 | 81 | 81 | 145 | 81 | 81 |  |  |  |  |  |  |  | 
